Reference: patent publication US4603128A, “Mineralocorticoid hormone antagonists” (priority 1984, dated 1986)
Like-named read-outs stand apart in the source and are kept apart here.

Assays:
adrenalectomized rat = assay: Mineralocorticoid antagonism in vivo, adrenalectomized rat assay (urinary Na/K); conditions: for In vivo antagonist activity compared with corresponding 7α-propionylthio derivative (Controls A, B, C, D): same substituents at C-21
Method: The bioassay for anti-mineralocorticoid activity was carried out as described for the assay of mineralocorticoid agonist activity by Ulick, Land and Chu, (Endocrinology 99:619, 1976), except that the control group received 1 μg of aldosterone per 100 g body weight and the experimental group received the test substance in addition. All results were expressed as ratio of control urinary Na/K to treatment urinary Na/K. The minimum effective dose of antagonist was defined as that amount of test substance required to block one-half of the effect of 1 μg. aldosterone/100 g body weight as measured by the ratio of control: treatment urinary Na/K.

[1] = tested on: mineralocorticoid receptor of mammalian kidney; assay: Mineralocorticoid receptor affinity (competition with 3H-aldosterone); type: binding; conditions: for Corticosteroid Receptor Affinity % Mineralocorticoid: amount of aldosterone vs amount of steroid for 50% reduction in binding of 1.3×10^-9 M 3H-aldosterone, kidney cytosol, aldosterone = 100; for Affinity Mineralocorticoid:Androgen Ratio: ratio of mineralocorticoid to androgen receptor affinity (therapeutic index)
Method: Each assay tube contained 250 μl cytosol solution and 1,2-^3 H-aldosterone at a final steroid concentration of 1.3×10^-9 M. Standard curves were prepared in the range of 0.1 to 100 ng aldosterone and non-specific binding of 10^-5 M aldosterone was subtracted. The amount of steroid ligand required to effect 50% reduction in the binding of labeled aldosterone compared to the amount of aldosterone to effect the same reduction was expressed as a percentage.

[2] = Rattus norvegicus, sc, subcutaneous, with 1 μg aldosterone per 100 g body weight, dose reducing urinary Na/K effect to one half, inactive = no antagonist activity at 250 μg/100 g, read-out: Mineralocorticoid antagonism Minimum effective dose
[3] = subcutaneous, with 1 μg aldosterone per 100 g body weight, dose reducing urinary Na/K effect to one half, inactive = no antagonist activity at 250 μg/100 g
[4] = oral route, adrenalectomized rat, read-out: Mineralocorticoid antagonism Minimum effective dose oral

Row | SMILES | ED50 (adrenalectomized rat; [2]) | Corticosteroid Receptor Affinity % Mineralocorticoid [1] | Affinity Mineralocorticoid:Androgen Ratio [1] | other results
1 | CCC(=O)S[C@@H]1CC2=CC(=O)CC[C@]2(C)[C@H]2CC[C@]3(C)[C@@H](C(=O)COC(C)=O)CC[C@H]3[C@H]12 [Control B, 7α-Propionylthio-21-acetoxy-4-pregnene-3,20-dione, reference compound] | 1 mg/kg | – | – | –
2 | C[C@]12CCC(=O)C=C1CC[C@@H]1[C@@H]2[C@@H](O)C[C@]2(C=O)[C@@H](C(=O)CO)CC[C@@H]12 [Aldosterone, reference compound] | – | 100% | – | –
3 | CCCC(=O)OCC(=O)[C@H]1CC[C@H]2[C@@H]3[C@H](SC(=O)CC)CC4=CC(=O)CC[C@]4(C)[C@H]3CC[C@]12C [Control C, 7α-Propionylthio-21-butyroxy-4-pregnene-3,20-dione, reference compound] | 1.5 mg/kg | – | – | –
4 | CCC(=O)OCC(=O)[C@H]1CC[C@H]2[C@@H]3[C@H](SC(C)=O)CC4=CC(=O)CC[C@]4(C)[C@H]3CC[C@]12C [Example 4] | 1 mg/kg | 38% | 190 | –
5 | CCCCCCC(=O)OCC(=O)[C@H]1CC[C@H]2[C@@H]3[C@H](SC(C)=O)CC4=CC(=O)CC[C@]4(C)[C@H]3CC[C@]12C [Example 7] | 0.75 mg/kg | 27% | 180 | In vivo antagonist activity compared with corresponding 7α-propionylthio derivative (Controls A, B, C, D) (adrenalectomized rat): always more active
6 | CC(=O)S[C@@H]1CC2=CC(=O)CC[C@]2(C)[C@H]2CC[C@]3(C)[C@@H](C(C)=O)CC[C@H]3[C@H]12 [Example 1, 7α-Acetylthio-4-pregnene-3,20-dione] | 1 mg/kg | 43% | 172 | In vivo antagonist activity compared with corresponding 7α-propionylthio derivative (Controls A, B, C, D) (adrenalectomized rat): always more active
7 | CCCCCCC(=O)OCC(=O)[C@H]1CC[C@H]2[C@@H]3[C@H](SC(=O)CC)CC4=CC(=O)CC[C@]4(C)[C@H]3CC[C@]12C [Control D, 7α-Propionylthio-21-heptanoyloxy-4-pregnene-3,20-dione, reference compound] | – | – | – | Mineralocorticoid antagonism Minimum effective dose (adrenalectomized rat; [3]): inactive
8 | CCCC(=O)OCC(=O)[C@H]1CC[C@H]2[C@@H]3[C@H](SC(C)=O)CC4=CC(=O)CC[C@]4(C)[C@H]3CC[C@]12C [Example 5] | 0.5 mg/kg | 60% | 300 | In vivo antagonist activity compared with corresponding 7α-propionylthio derivative (Controls A, B, C, D) (adrenalectomized rat): always more active
9 | CCC(=O)S[C@@H]1CC2=CC(=O)CC[C@]2(C)[C@H]2CC[C@]3(C)[C@@H](C(C)=O)CC[C@H]3[C@H]12 [Control A, 7α-Propionylthio-4-pregnene-3,20-dione, reference compound] | 2 mg/kg | – | – | –
10 | CC(=O)OCC(=O)[C@@]1(O)CC[C@H]2[C@H]3[C@H]([C@@H](O)C[C@@]21C)[C@@]1(C)CCC(=O)C=C1C[C@H]3SC(C)=O [Control E, 7α-Acetylthio-21-acetoxy-11β-dihydroxy-4-pregnene-3,20-dione, reference compound] | – | – | – | Mineralocorticoid antagonism Minimum effective dose (adrenalectomized rat; [3]): inactive
11 | CCCCC(=O)OCC(=O)[C@H]1CC[C@H]2[C@@H]3[C@H](SC(C)=O)CC4=CC(=O)CC[C@]4(C)[C@H]3CC[C@]12C [Example 6] | 1.5 mg/kg | 68% | 340 | –
12 | CC(=O)S[C@@H]1CC2=CC(=O)CC[C@]2(C)[C@H]2CC[C@]3(C)[C@@H](C(=O)COC(=O)C(C)(C)C)CC[C@H]3[C@H]12 [Example 8] | 0.75 mg/kg | 45% | 300 | –
13 | CC(=O)S[C@@H]1CC2=CC(=O)CC[C@]2(C)[C@H]2CC[C@@]3(C)[C@@H](CC[C@@]34CCC(=O)O4)[C@H]12 [Spironolactone, spironolactone, reference compound] | 2.5 mg/kg | 18% | – | ED50 (adrenalectomized rat; [4]): 10 mg/kg; Mineralocorticoid antagonism Minimum effective dose (adrenalectomized rat; [3]): 250 μg/100 g
14 | CC(=O)S[C@@H]1CC2=CC(=O)CC[C@]2(C)[C@H]2CC[C@]3(C)[C@@H](C(=O)CO)CC[C@H]3[C@H]12 [Example 2, 7α-Acetylthio-21-hydroxy-4-pregnene-3,20-dione] | 0.75 mg/kg | 35% | 175 | –
15 | CC(=O)OCC(=O)[C@H]1CC[C@H]2[C@@H]3[C@H](SC(C)=O)CC4=CC(=O)CC[C@]4(C)[C@H]3CC[C@]12C [Example 3, 7α-Acetylthio-21-acetoxy-4-pregnene-3,20-dione] | 0.25 mg/kg | 65% | 325 | Affinity ratio index compared with spironolactone ([1]; mineralocorticoid:androgen affinity ratio relative to spironolactone): ~40 times; Dose of spironolactone relative to compound required for equivalent mineralocorticoid antagonist effect, oral (adrenalectomized rat; oral route): four-fold; ED50 (adrenalectomized rat; [4]): 2.5 mg/kg; In vivo antagonist activity compared with corresponding 7α-propionylthio derivative (Controls A, B, C, D) (adrenalectomized rat): always more active; Effectiveness relative to spironolactone, subcutaneous (adrenalectomized rat; subcutaneous route): 10 times; Mineralocorticoid antagonism Minimum effective dose (adrenalectomized rat; [3]): 25 μg/100 g
